Tests used:
Rattus norvegicus [1] = assay: Antiinflammatory activity in Long Evans rat assessed as reduction of carrageenan-induced pedal edema at 200 mg/kg, po administered 1 hr prior to carrageenan challenge measured after 3 hrs relative to control; assay type: functional; set-up: scale not given: the % may be the effect or the level left
[2] = Toxicity in mouse assessed as overt effects; assay type: organism-based; details: in vivo
Rattus norvegicus [3] = assay: Antiinflammatory activity in Long Evans rat assessed as reduction of carrageenan-induced pedal edema at 50 mg/kg, po administered 1 hr prior to carrageenan challenge measured after 3 hrs relative to control; assay type: functional; set-up: scale not given: the % may be the effect or the level left
Rattus norvegicus [4] = assay: Antiinflammatory activity in Long Evans rat assessed as reduction of carrageenan-induced pedal edema at 40 mg/kg, po administered 1 hr prior to carrageenan challenge measured after 3 hrs relative to control; assay type: functional; set-up: scale not given: the % may be the effect or the level left
Rattus norvegicus [5] = assay: Antiinflammatory activity in Long Evans rat assessed as reduction of carrageenan-induced pedal edema at 100 mg/kg, po administered 1 hr prior to carrageenan challenge measured after 3 hrs relative to control; assay type: functional; set-up: scale not given: the % may be the effect or the level left
Rattus norvegicus [6] = assay: Antiinflammatory activity in Long Evans rat assessed as reduction of carrageenan-induced pedal edema at 15 mg/kg, po administered 1 hr prior to carrageenan challenge measured after 3 hrs relative to control; assay type: functional; set-up: scale not given: the % may be the effect or the level left
Rattus norvegicus [7] = assay: Antiinflammatory activity in Long Evans rat assessed as reduction of carrageenan-induced pedal edema at 150 mg/kg, po administered 1 hr prior to carrageenan challenge measured after 3 hrs relative to control; assay type: functional; set-up: scale not given: the % may be the effect or the level left

Row | SMILES | Activity (Rattus norvegicus [1]) | LD50 [2] | other results
1 | CCCCC(CC)C(=O)Oc1c(Cl)c(Cl)c(C#N)c(Cl)c1Cl (stereo unspecified) | 15% | > 300 mg/kg | 
2 | CCNc1c(F)c(C#N)c(F)c(F)c1C#N | 19% | 237 mg/kg | 
3 | N#Cc1cc(C#N)cc(C#N)c1 | 32% | 300 mg/kg | 
4 | N#Cc1cc(C#N)c(F)cc1F |  | 56 mg/kg | Activity (Rattus norvegicus [3]): 59%
5 | CC(C)C(=O)Oc1c(Cl)c(Cl)c(C#N)c(Cl)c1Cl | 0% | > 300 mg/kg | 
6 | Cc1cccc(C#N)c1 | 20% | > 300 mg/kg | 
7 | CNc1c(F)c(C#N)c(F)c(F)c1C#N |  | 56 mg/kg | Activity (Rattus norvegicus [4]): 17%
8 | N#Cc1cc(Cl)c(C#N)cc1F | 22% | > 300 mg/kg | 
9 | CCOCCS(=O)(=O)c1c(Cl)c(Cl)c(C#N)c(Cl)c1Cl | 23% | 237 mg/kg | 
10 | CCC(=O)Oc1c(Cl)c(Cl)c(C#N)c(Cl)c1C#N | 11% | 178 mg/kg | 
11 | N#Cc1cccc(C#N)c1Cl | 20% | 300 mg/kg | 
12 | N#Cc1c(Cl)c(C#N)c(Nc2ccc(N)cc2)c(C#N)c1Cl |  | 133 mg/kg | Activity (Rattus norvegicus [5]): 14%
13 | N#Cc1ccccc1Cl | 26% | > 300 mg/kg | 
14 | CC(C)Nc1c(C#N)c(Cl)c(C#N)c(NC(C)C)c1C#N | 5% | 300 mg/kg | 
15 | CC(C)CCC(=O)Oc1c(Cl)c(Cl)c(C#N)c(Cl)c1C#N |  | 56 mg/kg | Activity (Rattus norvegicus [3]): 0%
16 | N#Cc1c(Cl)c(Cl)c(S(=O)(=O)CCCCCl)c(Cl)c1Cl | 15% | > 300 mg/kg | 
17 | N#Cc1c(Cl)c(C#N)c(Nc2ccccc2O)c(C#N)c1Cl |  | 24 mg/kg | Activity (Rattus norvegicus [6]): 17%
18 | CCCCCS(=O)(=O)c1c(Cl)c(Cl)c(C#N)c(Cl)c1Cl | 5% | 237 mg/kg | 
19 | CCCC(=O)Oc1c(Cl)c(Cl)c(C#N)c(Cl)c1C#N |  | 178 mg/kg | Activity (Rattus norvegicus [7]): 14%
20 | N#CCCS(=O)(=O)c1c(Cl)c(Cl)c(C#N)c(Cl)c1Cl |  | 56 mg/kg | Activity (Rattus norvegicus [4]): 5%
21 | Cc1cccc(Nc2c(C#N)c(Cl)c(C#N)c(Cl)c2C#N)c1C |  | 75 mg/kg | Activity (Rattus norvegicus [3]): 22%
22 | CCCOc1c(Cl)c(Cl)c(C#N)c(Cl)c1C#N |  | 178 mg/kg | Activity (Rattus norvegicus [5]): 8%
23 | CCCCCCCC(=O)Oc1c(Cl)c(Cl)c(C#N)c(Cl)c1Cl | 0% | > 300 mg/kg | 

Row | SMILES | Activity (Rattus norvegicus [1]) | LD50 [2] | other results
24 | N#Cc1c(F)c(F)c(C#N)c(F)c1F |  | 56 mg/kg | Activity (Rattus norvegicus [3]): 54%
25 | CCN(CC)c1c(F)c(C#N)c(F)c(F)c1C#N | 0% | > 300 mg/kg | 
26 | CCCCCCCCCCCC(=O)Oc1c(Cl)c(Cl)c(C#N)c(Cl)c1Cl | 11% | > 300 mg/kg | 
27 | N#Cc1c(Cl)cc(Cl)c(C#N)c1Cl | 8% | 100 mg/kg | 
28 | CCCCS(=O)(=O)c1c(Cl)c(Cl)c(C#N)c(Cl)c1Cl | 12% | 237 mg/kg | 
29 | CNc1c(C#N)c(Cl)c(C#N)c(NC)c1C#N | 20% | 300 mg/kg | 
30 | CCCN(CCC)c1c(F)c(C#N)c(F)c(F)c1C#N | 22% | > 300 mg/kg | 
31 | N#Cc1ccccc1Br | 19% | > 300 mg/kg | 
32 | N#Cc1c(Cl)c(C#N)c(Nc2ccc(F)cc2F)c(C#N)c1Cl |  | 56 mg/kg | Activity (Rattus norvegicus [4]): 12%
33 | CC(C)S(=O)(=O)c1c(Cl)c(Cl)c(C#N)c(Cl)c1Cl | 11% | > 300 mg/kg | 
34 | N#Cc1c(Cl)c(C#N)c(Nc2ccc(Br)cc2)c(C#N)c1Cl | 14% | 300 mg/kg | 
35 | N#Cc1c(Cl)c(C#N)c(Nc2cccc(C(F)(F)F)c2)c(C#N)c1Cl | 29% | 237 mg/kg | 
36 | CCC(=O)Oc1c(Cl)c(Cl)c(C#N)c(Cl)c1Cl | 0% | > 300 mg/kg | 
37 | N#Cc1c(F)c(F)c(C#N)c(Nc2ccc(O)cc2)c1F | 10% | > 300 mg/kg | 
38 | N#Cc1cc(Cl)c(C#N)cc1Cl | 22% | > 300 mg/kg | 
39 | N#Cc1c(Cl)c(Cl)c(OC(=O)c2ccc(Cl)c(Cl)c2)c(Cl)c1Cl | 3% | > 300 mg/kg | 
40 | COc1c(Cl)c(Cl)c(C#N)c(Cl)c1C#N |  | 178 mg/kg | Activity (Rattus norvegicus [5]): 0%
41 | N#Cc1c(Cl)c(Cl)c(S(=O)(=O)CCCl)c(Cl)c1Cl | 0% | > 300 mg/kg | 
42 | C=CCNc1c(Cl)c(Cl)c(C#N)c(Cl)c1C#N | 17% | > 300 mg/kg | 
43 | N#Cc1ccc(Cl)cc1 | 30% | > 300 mg/kg | 
44 | CCCCCC(=O)Oc1c(Cl)c(Cl)c(C#N)c(Cl)c1C#N | 11% | > 300 mg/kg | 
45 | CNC(=O)Oc1c(Cl)c(Cl)c(C#N)c(Cl)c1C#N |  | 178 mg/kg | Activity (Rattus norvegicus [5]): 20%
46 | N#Cc1c(Cl)c(Cl)c(OC(=O)c2ccccc2Cl)c(Cl)c1Cl | 0% | > 300 mg/kg | 

Row | SMILES | Activity (Rattus norvegicus [1]) | LD50 [2] | other results
47 | N#Cc1cccc(C#N)c1 | 35% | 178 mg/kg | 
48 | N#Cc1ccc(C#N)cc1 | 27% | > 300 mg/kg | 
49 | N#Cc1c(Cl)c(Cl)c(OC(=O)Cc2ccccc2)c(Cl)c1Cl | 0% | > 300 mg/kg | 
50 | N#Cc1ccc(F)c(C#N)c1 |  | 178 mg/kg | Activity (Rattus norvegicus [7]): 25%
51 | N#Cc1c(Cl)c(Cl)c(S(=O)(=O)CCCc2ccccc2)c(Cl)c1Cl | 18% | 300 mg/kg | 
52 | N#Cc1c(Cl)c(C#N)c(Nc2cccc(F)c2)c(C#N)c1Cl |  | 56 mg/kg | Activity (Rattus norvegicus [4]): 0%
53 | CC(=O)Oc1c(Cl)c(Cl)c(C#N)c(Cl)c1C#N | 25% | 237 mg/kg | 
54 | CCCCCCCCCCS(=O)(=O)c1c(Cl)c(Cl)c(C#N)c(Cl)c1Cl | 0% | > 300 mg/kg | 
55 | N#Cc1c(Cl)c(C#N)c(Nc2ccc(Cl)c(Cl)c2)c(C#N)c1Cl |  | 56 mg/kg | 
56 | N#Cc1c(Cl)c(Cl)c(C#N)c(Cl)c1Cl | 13% | > 300 mg/kg | 
57 | N#Cc1ccc(Br)cc1 |  | 237 mg/kg | Activity (Rattus norvegicus [7]): 75%
58 | CCCCCCNc1c(F)c(C#N)c(F)c(F)c1C#N | 11% | > 300 mg/kg | 
59 | N#Cc1cc(C#N)c(Cl)cc1Cl |  | 178 mg/kg | Activity (Rattus norvegicus [7]): 5%
60 | CCCCC1C(=O)N(c2ccccc2)N(c2ccccc2)C1=O [PHENYLBUTAZONE] |  | > 300 mg/kg | Activity (Rattus norvegicus [5]): 43.8%
61 | CCNc1c(C#N)c(Cl)c(C#N)c(NCC)c1C#N | 11% | 300 mg/kg | 
62 | CCCCNc1c(F)c(C#N)c(F)c(F)c1C#N | 14% | > 300 mg/kg | 
63 | CCCCNC(=O)Oc1c(Cl)c(Cl)c(C#N)c(Cl)c1C#N |  | 178 mg/kg | Activity (Rattus norvegicus [5]): 3%
64 | N#Cc1ccc(F)cc1 | 17% | > 300 mg/kg | 
65 | N#Cc1ccc(Br)c(C#N)c1 |  | 178 mg/kg | Activity (Rattus norvegicus [5]): 3%
66 | CCCCC(=O)Oc1c(Cl)c(Cl)c(C#N)c(Cl)c1Cl | 2% | > 300 mg/kg | 
67 | Cc1c(C#N)c(C)c(C#N)c(C)c1C#N |  | 40 mg/kg | Activity (Rattus norvegicus [3]): 57%
68 | Cc1ccc(Nc2c(C#N)c(Cl)c(C#N)c(Cl)c2C#N)c(C)c1 |  | 56 mg/kg | Activity (Rattus norvegicus [4]): 13%
69 | CCCCCCCC(=O)Oc1c(Cl)c(Cl)c(C#N)c(Cl)c1C#N |  | 178 mg/kg | Activity (Rattus norvegicus [7]): 22%

Row | SMILES | Activity (Rattus norvegicus [1]) | LD50 [2] | other results
70 | CCCCC(CC)C(=O)Oc1c(Cl)c(Cl)c(C#N)c(Cl)c1C#N (stereo unspecified) | 20% | > 300 mg/kg | 
71 | Cc1ccc(C#N)cc1C | 25% | > 300 mg/kg | 
72 | CCC(CC)C(=O)Oc1c(Cl)c(Cl)c(C#N)c(Cl)c1Cl | 11% | > 300 mg/kg | 
73 | N#Cc1c(N)c(Cl)c(Cl)c(C#N)c1Cl | 25% | > 300 mg/kg | 
74 | CCCCCC(=O)Oc1c(Cl)c(Cl)c(C#N)c(Cl)c1Cl | 0% | > 300 mg/kg | 
75 | CC(C)C(=O)Oc1c(Cl)c(Cl)c(C#N)c(Cl)c1C#N | 0% | 237 mg/kg | 
76 | N#Cc1c(Cl)c(Cl)c(OC(=O)C(Cl)(Cl)Cl)c(Cl)c1Cl | 17% | > 300 mg/kg | 
77 | N#Cc1c(Cl)c(Cl)c(OC(=O)c2ccccc2)c(C#N)c1Cl | 11% | > 300 mg/kg | 
78 | CNc1c(Cl)c(Cl)c(C#N)c(Cl)c1C#N | 22% | > 300 mg/kg | 
79 | COc1ccc(Nc2c(C#N)c(Cl)c(C#N)c(Cl)c2C#N)cc1OC |  | 178 mg/kg | Activity (Rattus norvegicus [7]): 13%
80 | N#Cc1c(Cl)c(C#N)c(Nc2ccc(Cl)cc2)c(C#N)c1Cl |  | 178 mg/kg | Activity (Rattus norvegicus [7]): 1%
81 | N#Cc1c(Cl)c(C#N)c(Nc2cccc(Cl)c2)c(C#N)c1Cl |  | 178 mg/kg | Activity (Rattus norvegicus [4]): 0%
82 | N#Cc1ccc(C#N)c(F)c1 | 49% | > 300 mg/kg | 
83 | CCCCC(CC)CNc1c(Cl)c(Cl)c(C#N)c(Cl)c1C#N (stereo unspecified) | 0% | > 300 mg/kg | 
84 | N#Cc1cc(F)c(C#N)cc1F | 32% | 56 mg/kg | 
85 | N#Cc1c(F)c(F)c(C#N)c(Cl)c1F |  | 40 mg/kg | Activity (Rattus norvegicus [4]): 86%
86 | CCCCCCS(=O)(=O)c1c(Cl)c(Cl)c(C#N)c(Cl)c1Cl |  | 178 mg/kg | Activity (Rattus norvegicus [7]): 2%
87 | CCCC(=O)Oc1c(Cl)c(Cl)c(C#N)c(Cl)c1Cl | 15% | > 300 mg/kg | 
88 | CCCCOc1c(Cl)c(Cl)c(C#N)c(Cl)c1C#N |  | 178 mg/kg | Activity (Rattus norvegicus [5]): 8%
89 | CCCCNc1c(Cl)c(Cl)c(C#N)c(Cl)c1C#N | 17% | > 300 mg/kg | 
90 | N#Cc1c(O)c(Cl)c(Cl)c(C#N)c1Cl |  | 178 mg/kg | Activity (Rattus norvegicus [7]): 28%
91 | N#Cc1ccc(C#N)c(Cl)c1 | 46% | > 300 mg/kg | 
